Source: patent US9913921B2, “Pretargeting kit for imaging or therapy comprising a trans-cyclooctene dienophile and a diene” (TAGWORKS PHARMACEUTICALS B.V., priority 2011, dated 2018)
Blank lines part the entries; values can stand above or below the molecule they belong to.

What was measured:
[1] = Reactivity of tetrazines towards trans-cyclooct-4-ene-1-ol (minor isomer), competition experiment; conditions: reference 3-(5-acetamido-2-pyridyl)-6-(2-pyridyl)-1,2,4,5-tetrazine
Protocol: A competition experiment was performed to determine the reactivity ratio of a specific tetrazine and 3-(5-acetamido-2-pyridyl)-6-(2-pyridyl)-1,2,4,5-tetrazine (that was chosen as the reference tetrazine), in the inverse-electron demand Diels-Alder reaction with trans-cyclooct-4-ene-1-ol (minor isomer).
To acetonitrile (0.100 mL) was added 5 μL of a solution of the specific tetrazine in DMSO (25 mM) and 5 μL, of a solution of the reference tetrazine in DMSO (25 mM). This mixture was diluted with water (0.9 mL), and the absolute amounts of both tetrazines was determined by HPLC-MS/PDA analysis. Subsequently, a solution of trans-cyclooct-4-ene-1-ol (minor isomer) in DMSO (25 μL, 2.5 mM) was slowly added, and the mixture was stirred for 5 min. Again, the absolute amounts of both tetrazines was determined by HPLC-MS/PDA analysis, and conversions for both tetrazines was calculated. From these conversions, the reactivity ratio (R=k2,TCO/k2,Ref) of both tetrazines was calculated using the mathematical procedure from Ingold and Shaw (J. Chem. Soc., 1927, 2918-2926).

[2] = Hydrolytic stability tests of tetrazines; format: physicochemical; conditions: PBS buffer, 20° C.
[3] = Reactivity of trans-cyclooctene derivatives towards bis(2-pyridyl)-1,2,4,5-tetrazine, competition experiment; conditions: for reactivity towards tetrazines compared to minor isomer of trans-cyclooct-4-ene-1-ol: in words; for Reactivity ratio (R = k2,TCO/k2,Ref): reference trans-cyclooct-4-ene-1-ol (minor isomer)
Protocol: A competition experiment was performed to determine the reactivity ratio of a specific trans-cyclooctene derivative and trans-cyclooct-4-ene-1-ol (minor isomer) (that was chosen as the reference trans-cyclooctene), in the inverse-electron demand Diels-Alder reaction with bis(2-pyridyl)-1,2,4,5-tetrazine.
This mixture was diluted with water (0.45 mL). Subsequently, a solution of bis(2-pyridyl)-1,2,4,5-tetrazine (6.25*10^−8 mol) in a mixture of acetonitrile (0.05 mL) and water (0.45 mL) was slowly added while stirring vigorously. After addition, the mixture was stirred for an additional 5 min. The conversion of both trans-cyclooctene derivatives was determined by HPLC-MS/PDA analysis, and from these conversions, the reactivity ratio (R=k2,TCO/k2,Ref) of the specific trans-cyclooctene derivative was calculated using the mathematical procedure from Ingold and Shaw (J. Chem. Soc., 1927, 2918-2926).

[4] = Stability of trans-cyclooctene derivatives; format: physicochemical; conditions: PBS buffer, 20° C., in the dark, estimation
Protocol: 10 μL of a solution of the specific trans-cyclooctene derivative in dioxane (25 mM) was diluted with PBS buffer (3 mL), and this solution was stored at 20° C. in the dark. The faith of the TCO compound was monitored by HPLC-MS analysis, and an estimation of the half-life time was made.

[5] = Reaction of trans-cyclooctene β-lactam derivative with tetrazine; conditions: tetrazine suspension in water
Protocol: (§1) To a suspension of 3,6-diphenyl-1,2,4,5-tetrazine (6.25*10^−8 mol) in water (1 mL) was added the trans-cyclooctene β-lactam derivative 25 (6.25*10^−8 mol). […] This was confirmed by HPLC-MS analysis: complete disappearance of the tetrazine signal and formation of the rDA adduct with m/z=416.42 (M+H^+).

[6] = as above; conditions: equimolar (6.25*10^−8 mol) in water, immediate discoloration, HPLC-MS
Protocol: as §1, with “solution” for “suspension”, “(4-(1,2,4,5-tetrazin-3-yl)phenyl)methanamine” for “3,6-diphenyl-1,2,4,5-tetrazine”, “m/z=369.17” for “m/z=416.42”

[7] = as above; conditions: equimolar (6.25*10^−8 mol) in water, immediate discoloration, HPLC-MS; remark: listed apart in the source
[8] = as above; conditions: equimolar (6.25*10^−8 mol) in water, immediate discoloration, HPLC-MS; remark: listed apart in the source
Protocol: as §1, with “solution” for “suspension”, “3-(5-acetamido-2-pyridyl)-6-(2-pyridyl)-1,2,4,5-tetrazine” for “3,6-diphenyl-1,2,4,5-tetrazine”, “m/z=475.33” for “m/z=416.42”

[9] = as above; conditions: equimolar (6.25*10^−8 mol) in water, immediate discoloration, HPLC-MS; remark: listed apart in the source
Protocol: as §1, with “solution” for “suspension”, “3-(5-butyramido-2-pyridyl)-6-(2-pyrimidyl)-1,2,4,5-tetrazine” for “3,6-diphenyl-1,2,4,5-tetrazine”, “m/z=504.42” for “m/z=416.42”

half-life at 83 µM [2]: 4.5 h
SMILES: c1cnc(-c2nnc(-c3ncccn3)nn2)nc1
Reactivity ratio (R = k2,TZ/k2,Ref) [1]: 0.12

SMILES: O=C(O)C1C2CC/C=C/CCC21 (stereo not drawn) [compound 5, (E-exo)-Bicyclo[6.1.0]non-4-ene-9-carboxylic acid]
reactivity towards tetrazines compared to minor isomer of trans-cyclooct-4-ene-1-ol [3]: markedly increased reactivity
Reactivity ratio (R = k2,TCO/k2,Ref) ([3]; listed as drawing 43): 20.0

half-life at 83 µM [4]: > 72 h
SMILES: O=C1N[C@H]2CC/C=C/CC[C@H]2N1 [compound 40, Cis (E)-3,3a,4,5,9,9a-hexahydro-1H-cycloocta[d]imidazol-2(8H)-one]
reactivity towards tetrazines compared to minor isomer of trans-cyclooct-4-ene-1-ol [3]: markedly increased reactivity
Reactivity ratio (R = k2,TCO/k2,Ref) [3]: 7.3

half-life at 83 µM [4]: ~24 h
SMILES: O=C(O)CN1C(=O)C2CC/C=C/CCC21 (stereo not shown) [compound 25, (E)-2-(10-oxo-9-azabicyclo[6.2.0]dec-4-en-9-yl)acetic acid]
reactivity towards tetrazines compared to minor isomer of trans-cyclooct-4-ene-1-ol [3]: markedly increased reactivity
Reactivity ratio (R = k2,TCO/k2,Ref) [3]: 5.4
reaction with tetrazine ([5]; equimolar (6.25*10^−8 mol), HPLC-MS): quantitative reaction
time until pink, turbid mixture became clear and colorless [5]: ≤ 15 min
reaction with tetrazine [6]: quantitative reaction
reaction with tetrazine [7]: quantitative reaction
reaction with tetrazine [8]: quantitative reaction
reaction with tetrazine [9]: quantitative reaction

half-life at 83 µM [4]: > 72 h
SMILES: O=C(O)C1C2CC/C=C/CCC21 (stereo not drawn) [compound 4, (E-endo)-Bicyclo[6.1.0]non-4-ene-9-carboxylic acid]
reactivity towards tetrazines compared to minor isomer of trans-cyclooct-4-ene-1-ol [3]: markedly increased reactivity
Reactivity ratio (R = k2,TCO/k2,Ref) ([3]; listed as drawing 42): 13.1
